# According to a melting point compilation (Tetko et al.; mined from patent text by program, amines drawn as free bases though some values may be those of a salt):
row,Structure (SMILES),melting point
1,Clc1ccc(N(Cc2ccccc2)c2ccccc2)cc1,94 to 95 °C
2,CC(C)=CCC[C@H](C)CC(=NO)C(C[C@@H](C)CCC=C(C)C)=NO,131 to 132 °C
3,CCOc1ccc(/C=C(\C)C(=O)O)cc1,180 °C
4,COc1nc2cc(Cl)c(Cl)c(C(=O)O)c2nc1OC,230 to 232 °C
5,COC(=O)Cc1cc(C)c(C(=O)c2ccc(Cl)cc2)n1C,122 to 125 °C
6,CCOC(=O)c1cn(Cc2ccccc2)nc1NC(=O)NC(C)(C)C,130 to 131 °C
7,CCOc1cc2cc(COC(C)=O)c(COC(C)=O)c(-c3ccnc(-n4ccc5ccccc5c4=O)c3)c2cc1OCC,90 to 93 °C
8,N#Cc1ccc(OCC(NNC(=O)Nc2ccc(OC(F)(F)F)cc2)c2ccccc2)cc1 (stereo not given),176 °C
9,O=C(c1ccccc1F)C1CCN(C(=O)Oc2ccccc2)CC1,95 to 96 °C
10,CC(=O)OCn1c(C(=O)OC(C)C)nc(Cl)c1Cl,81 to 82 °C
11,CC(=O)c1ccc(C(=O)c2ccc(O)c(CC(=O)O)c2)cc1,235 °C
12,CC(C)(C)OC(=O)Nc1sc(-c2cncc(F)c2)nc1F,188 to 191 °C
13,COc1cc(C(=O)CCC(=O)c2cc(OC)c(OC)c(OC)c2)cc(I)c1OCc1ccccc1,134 to 135 °C
14,C[C@@H](n1cnc2cc(C(N)=O)ccc2c1=O)[C@](O)(Cn1cncn1)c1ccc(F)cc1F,235 to 236 °C
15,O=C(c1cccnc1)c1ccc([N+](=O)[O-])c(CO)c1,184 °C
16,Cc1cccc2c(C(F)(F)F)c(O)ccc12,83 to 84 °C
17,Cc1nnc(-c2ccnc(NCc3cccnc3)c2)o1,139 to 140 °C
18,CCOCc1nc2c(N)nc3ccccc3c2n1CCCCS(=O)(=O)N(C)C,173 to 174 °C
19,Nc1c(-c2cc(Cl)ccc2O)c2cc(I)ccc2[nH]c1=O,160 to 162 °C
20,CCOC(=O)c1cn(-c2nc(N)c(F)cc2C)c2c(Cl)c(F)c(F)cc2c1=O,198 to 202 °C
21,c1ccc2cc(N3CCNCC3)ncc2c1,95 to 96 °C
22,CC(C)(C)OC(=O)N1CCC(OCc2ccccc2)C1CC(=O)Cn1cnc2cccnc2c1=O (stereo not given),229 °C
23,c1cc(-c2cnn3cc(-c4ccc(OCCN5CCOCC5)cc4)cnc23)cs1,149 to 151 °C
24,COC(=O)c1cccc(-c2csc(N=C(N)N)n2)n1,240 °C
25,FC(F)(F)c1nc(-c2ccc(Cl)cc2)c(-c2ccc(Cl)cc2)s1,101 to 102 °C

row,Structure (SMILES),melting point
1,O=C(O)C(=O)CC(=O)c1ccc(C2CCCCC2)cc1,140 to 142 °C
2,Cc1cc(Oc2cccc(C(F)(F)F)c2)nn1C(=O)Nc1cc(OC2CCCC2)c(Cl)cc1F,81 to 83 °C
3,CC(=O)OCC1OC(n2c(Cl)nc3c(Cl)cc(Cl)cc32)C(OC(C)=O)C1OC(C)=O (stereo not given),165 to 167 °C
4,COc1ccc(C2=CCN(Cc3n[nH]c4c(F)cccc34)CC2)cc1,183 to 185 °C
5,O=C(c1ccc(-n2ccc(CO)n2)cc1Cl)N1Cc2cccn2Cc2ccccc21,85 °C
6,CN(C)Cc1cc2c(s1)Oc1ccccc1N=C2N1CCN(C)CC1,188 to 189 °C
7,CC(Oc1ccc(-c2ccc(-c3c(Cc4ccccc4)oc4ccccc34)cc2)cc1)C(=O)O (stereo not given),112 to 114 °C
8,COc1ccc(C(c2ccccc2)(c2ccc(OC)cc2)C(F)(F)F)cc1,120 to 121 °C
9,Nc1nc(-c2ccc(CCCCCl)s2)cs1,99 to 100 °C
10,COc1ccc(C(=O)c2c(Cl)cc(Cl)cc2Cl)cc1Cc1ccc(=O)n(C)n1,150 °C
11,Clc1ccc(-c2nc3cccnc3n2Cc2ccccn2)cc1,144 to 146 °C
12,OC1c2ccc(F)cc2SC1Cn1ccnc1 (stereo not given),165 to 166 °C
13,Cc1ccccc1CC(=O)N1CCN(c2nccs2)CC1,110 to 111 °C
14,Cc1cccc(Nc2cc(Cl)nc(SCC(=O)NN3CCOCC3)n2)c1C,106 to 108 °C
15,COc1ccc(-n2cc(CCCO)c(C(C)C)n2)nn1,122 to 123 °C
16,O=c1c2cnc(-c3ccccc3)nc2sn1Cc1ccccc1,166 to 167 °C
17,CCCCc1c(C(=O)OCC)cc(O)c2ccccc12,117 to 120 °C
18,O=C(OCc1ccccc1)c1ccc2cc(-c3ccc(CCCO)c(C45CC6CC(CC(C6)C4)C5)c3)ccc2c1,176 °C
19,CCOC(=O)CCN1CCC(OC(c2ccccc2)c2ccc(C)cc2)CC1 (stereo not given),101 to 104 °C
20,CCOC(=O)c1nc(-c2ccccc2)n(-c2ccc(C(F)(F)F)cc2Cl)n1,107 to 108 °C
21,CCC1CN2C(C)=Nc3c(C)nn(C)c3C2=N1 (stereo not given),121 to 123 °C
22,COC(=O)/C(C)=C1\CN2C(=O)CC2O1 (stereo not given),90 to 91 °C
23,CCOC(=O)COc1cc(O)c2c(c1)NC1(CCCCC1)CC2=O,134 to 135 °C
24,O=C1N=C(N2CCOCC2)SC1=Cc1ccc(F)c(-c2ccc(O)c(C34CC5CC(CC(C5)C3)C4)c2)c1,338 to 343 °C
25,COc1ccc(C2Nc3ccc(Cl)cc3C(C#CC3CC3)(C(F)(F)F)O2)cc1OC (stereo not given),172 to 175 °C

row,Structure (SMILES),melting point
1,CCC(=O)c1c[nH]c2c(OC)cccc2c1=O,260 to 263 °C
2,COCCCn1cc(Br)c2c3c(c(-c4ccccc4Cl)cc21)C(=O)NC3=O,149 to 151 °C
3,FC(F)(F)c1cc(Cl)c(-n2cccn2)c(Cl)c1,83 to 85 °C
4,FC(F)(F)c1ccc(-c2cc(Oc3cncc4ccccc34)ncn2)cc1,206 to 211 °C
5,COCc1ccn2nc(S(=O)(=O)Cl)nc2n1,125 °C
6,O=C(c1cc(C(F)(F)F)cc(C(F)(F)F)c1)N1CCNCCC1c1ccccc1 (stereo not given),151 to 153 °C
7,Oc1ccc2c(-c3cccc4c(O)cccc34)noc2c1,258 to 259 °C
8,Cc1nc2ccc(F)cc2n1C1CC2CC(=O)CC2C1 (stereo not given),199 to 200 °C
9,CN(CCCO)C(=O)c1c2ccc(Cl)cc2c(-c2ccccc2)n1C,85 to 88 °C
10,COc1ccccc1-c1nc(N)ncc1-c1ccc(=O)n(C)n1,225 °C
11,N[C@@H](C/C(=C\C1CCCCC1)C(=O)O)C(=O)O,205 °C
12,NC(=O)c1cccc(OCc2ccc(Br)cc2)c1,160 to 161 °C
13,CC(=O)OC(C(=O)N1C(Cc2ccccc2)COC1(C)C)c1ccc(-c2ccc(-c3ccccc3)cc2)o1 (stereo not given),120 to 128 °C
14,CN1CCN(c2nc(Nc3cccc(NS(C)(=O)=O)c3)nc3[nH]cnc23)CC1,148 to 151 °C
15,CC(C)C[C@H](NC(=O)[C@@H]1CCCN1c1nc2ccccc2c(=O)o1)C(=O)NCC(N)=O,199 to 201 °C
16,Cc1cc(C)c(N2CCCc3c2nn(C)c3Br)c(Cl)c1,106 to 107 °C
17,CC(C)(O)COc1c(-c2ccc(S(N)(=O)=O)cc2)cnn(-c2ccc(F)c(F)c2)c1=O,65 to 69 °C
18,O=C1Cc2cc(F)ccc2N1c1ccc(F)cc1,135 to 140 °C
19,CCCC1=C(C#N)C(c2cccc3oc(C)nc23)c2c[nH]nc2N1 (stereo not given),208 °C
20,O=C(NCCc1ccccc1)C1=C(C(=O)Nc2cc(OC3CCCC3)c(Cl)cc2F)CCCC1,165 to 166 °C
21,COc1ccc(C(=O)Nc2ccc(C(C)(C)C#N)c(-c3cncnc3)c2)cc1OC,198 to 200 °C
22,"CON(C)C(=O)NC(CS)Cc1ccccc1 (single isomer, unassigned; (+))",50 °C
23,CSc1ccc2c(C3=C(c4cn(C)c5cc([N+](=O)[O-])ccc45)C(=O)NC3=O)cn(C)c2c1,273 to 275 °C
24,C=CC(O)c1ccc2cc(OCCCCCC)ccc2c1 (stereo not given),47 to 48 °C
25,c1cc(C2CCC(c3ccc(OCC4CO4)cc3)CC2)ccc1OCC1CO1 (stereo not given),154 °C

row,Structure (SMILES),melting point
1,Cc1oc(-c2ccccc2)nc1CCOc1ccc(CCl)cc1,88 to 90 °C
2,C=CCNC(=O)C1CCc2cc(Cl)ccc2O1 (stereo not given),112 to 114 °C
3,O=C1N(Cc2noc(C(F)(F)F)n2)c2ccccc2C12COc1cc3c(cc12)OCCO3 (stereo not given),159 to 160 °C
4,COc1ccc(C(=O)N2CCC(N3CC4(CCN(Cc5ccccc5)CC4)c4ccccc43)c3ccccc32)cc1OC (stereo not given),155 to 157 °C
5,COC(=O)c1cc(CO)ccc1S(=O)(=O)NC(=O)Nc1nc(OC)cc(OC)n1,182 to 185 °C
6,Cc1nc(Cl)c([N+](=O)[O-])c(NCC(C)(C)N)c1C,89 to 94 °C
7,Oc1cccc(C=C2c3ccccc3Cc3ccccc32)c1,196 °C
8,CCCC(=O)c1cc2c(=O)cc(C(=O)O)[nH]c2c(C)c1C,267 to 269 °C
9,COc1ccc(Cn2nnc(-c3cccc(CO)c3)n2)cc1,70 to 72 °C
10,CCc1cccc(CC)c1NC(=O)NCC1(c2ccccc2)CC1,166 to 168 °C
11,O=C(O)CCc1nc(-c2ccccc2)cs1,72 to 73 °C
12,COC(=O)c1ccc(NC(=O)c2ccccc2C)nc1,167 to 169 °C
13,CCC(=O)C(=Cc1ccc(C#N)cc1)C(=O)CC,59 to 60 °C
14,CCN(CC)C(=O)c1cc(-c2ccc(OC)cc2)c2ccccc2c1,147 to 149 °C
15,CN(CCOc1ccc(C=C2SC(=O)NC2=O)cc1)c1ccccn1,177 to 179 °C
16,CC1(C)NC(=O)N(CC(CSc2ccc(-c3ccc(C(F)(F)F)cc3)cc2)N(O)C=O)C1=O (stereo not given),172 to 174 °C
17,O=C(Nc1ccc(Cl)c(C(=O)Nc2ccccc2)c1O)Nc1cccc(Cl)c1Cl,244 to 245 °C
18,O=C[C@H](OCc1ccccc1)[C@@H](OCc1ccccc1)[C@H](OCc1ccccc1)[C@H](O)COCc1ccccc1,151 °C
19,OC(Cc1ccccc1)Cc1ccccc1,107 to 109 °C
20,COc1ccc(-n2nc3c(cc2=O)CCSc2sccc2-3)cc1,126 to 128 °C
21,CCCCOc1c(CNC(=O)OC(C)(C)C)n(CC(C)C)c(=O)c2ccc(C(C)=O)cc12,161 to 162 °C
22,CCCCCCCCCCCCCCCCC(C)c1cccc2c1OC(=O)C2c1ccccc1 (stereo not given),60 to 62 °C
23,O=C(NN1CCOCC1)OCCCCCCOC(=O)NN1CCOCC1,197 to 199 °C
24,CC(C)(C)OC(=O)C1C(C=CC(=O)O)C1(C)C (stereo not given),94 °C
25,Cc1cnc(C2=NC(C)(C(C)C)C(=O)N2)c(C(=O)C(=O)N(C)C)c1 (stereo not given),180 to 182 °C
